Tests used:
Details in all cases: treatment: drug + dasatinib (fixed dose, not stated); 5 days
TK-10 [1] = test: AUC of dose-response viability curve, drug + dasatinib, normalised to DMSO (arbitrary (AUC of normalised viability)); higher = less growth inhibition
Experimental: (§1)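 Primary HTS combination arm: 8 RCC cell lines treated with 8 doses (up to 10 uM) of each library drug plus a fixed dose of dasatinib (dose not stated) for 5 days; viability read by CellTiter-Glo and normalised to DMSO. GI50 was fitted with XLfit, AUC is the area under the dose-response curve, and minimum viability is the lowest fraction of DMSO viability across doses.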

ACHN [2] = test: as above
Experimental: as §1

UO-31 [3] = test: as above
Experimental: as §1

CAKI-1 [4] = test: as above
Experimental: as §1

SN12C [5] = test: as above
Experimental: as §1

786-O [6] = test: as above
Experimental: as §1

A498 [7] = test: as above
Experimental: as §1

769-P [8] = test: as above
Experimental: as §1

TK-10 [9] = test: GI50 of drug in presence of dasatinib; higher = less potent
Experimental: as §1

ACHN [10] = test: as above
Experimental: as §1

UO-31 [11] = test: as above
Experimental: as §1

CAKI-1 [12] = test: as above
Experimental: as §1

SN12C [13] = test: as above
Experimental: as §1

786-O [14] = test: as above
Experimental: as §1

A498 [15] = test: as above
Experimental: as §1

769-P [16] = test: as above
Experimental: as §1

TK-10 [17] = test: minimum viability across doses, drug + dasatinib, relative to DMSO (fraction); higher = less growth inhibition
Experimental: as §1

ACHN [18] = test: as above
Experimental: as §1

UO-31 [19] = test: as above
Experimental: as §1

CAKI-1 [20] = test: as above
Experimental: as §1

SN12C [21] = test: as above
Experimental: as §1

786-O [22] = test: as above
Experimental: as §1

A498 [23] = test: as above
Experimental: as §1

769-P [24] = test: as above
Experimental: as §1

Compound	AUC of dose-response viability curve (TK-10 [1])	AUC of dose-response viability curve (ACHN [2])	AUC of dose-response viability curve (UO-31 [3])	AUC of dose-response viability curve (CAKI-1 [4])	AUC of dose-response viability curve (SN12C [5])	AUC of dose-response viability curve (786-O [6])	AUC of dose-response viability curve (A498 [7])	AUC of dose-response viability curve (769-P [8])	GI50 of drug (TK-10 [9]) [µM]	GI50 of drug (ACHN [10]) [µM]	GI50 of drug (UO-31 [11]) [µM]	GI50 of drug (CAKI-1 [12]) [µM]	GI50 of drug (SN12C [13]) [µM]	GI50 of drug (786-O [14]) [µM]	GI50 of drug (A498 [15]) [µM]	GI50 of drug (769-P [16]) [µM]	minimum viability across doses (TK-10 [17])	minimum viability across doses (ACHN [18])	minimum viability across doses (UO-31 [19])	minimum viability across doses (CAKI-1 [20])	minimum viability across doses (SN12C [21])	minimum viability across doses (786-O [22])	minimum viability across doses (A498 [23])	minimum viability across doses (769-P [24])
O=C1CCC(N2C(=O)c3ccccc3C2=O)C(=O)N1 (stereo not drawn) [Thalidomide] + Cc1nc(Nc2ncc(C(=O)Nc3c(C)cccc3Cl)s2)cc(N2CCN(CCO)CC2)n1 [dasatinib]	2.48	2.17	4.13	2.35	2.52	2.49	3.94	2.54	> 10	> 10	> 10	> 10	> 10	> 10	> 10	> 10	0.665	0.555	1.03	0.638	0.679	0.556	0.971	0.666
O=C(NCc1ccccc1)c1csc(Nc2ccncn2)n1 [Thiazovivin] + Cc1nc(Nc2ncc(C(=O)Nc3c(C)cccc3Cl)s2)cc(N2CCN(CCO)CC2)n1 [dasatinib]	2.73	2.12	2.79	2.04	2.56	2.04	3.03	2.27	> 10	2.07	1.65	1.87	> 10	2.39	> 10	2.83	0.494	0.225	0.0123	0.175	0.694	0.327	0.777	0.318
COc1ccc2cc(-c3[nH]c(-c4ccc(S(C)=O)cc4)nc3-c3ccncc3)ccc2c1 (stereo not drawn) [Tie2 kinase inhibitor] + Cc1nc(Nc2ncc(C(=O)Nc3c(C)cccc3Cl)s2)cc(N2CCN(CCO)CC2)n1 [dasatinib]	2.69	2.03	4.56	2.41	2.4	2.51	3.88	2.36	> 10	> 10	> 10	> 10	> 10	8.92	> 10	> 10	0.68	0.521	1.07	0.657	0.64	0.468	0.97	0.595
COc1cc2nccc(Oc3ccc(NC(=O)Nc4cc(C)on4)c(Cl)c3)c2cc1OC [Tivozanib (AV-951)] + Cc1nc(Nc2ncc(C(=O)Nc3c(C)cccc3Cl)s2)cc(N2CCN(CCO)CC2)n1 [dasatinib]	2.55	1.95	3.32	1.75	2.12	2.68	3.13	2.1	9.67	1.63	4.15	0.743	1.95	> 10	9.89	1.57	0.493	0.0982	0.0455	0.0242	0.134	0.569	0.457	0.146
CC(C)(C)c1cc(/C=C(\C#N)C(N)=S)cc(C(C)(C)C)c1O [Tyrphostin AG 879 (AG 879)] + Cc1nc(Nc2ncc(C(=O)Nc3c(C)cccc3Cl)s2)cc(N2CCN(CCO)CC2)n1 [dasatinib]	2.39	2.11	5.04	2.38	2.56	1.83	3.69	2.55	> 10	> 10	> 10	7.59	> 10	< 0.003	> 10	> 10	0.653	0.556	1.26	0.45	0.706	0.458	1	0.689
Cc1cc(Nc2cc(N3CCN(C)CC3)nc(Sc3ccc(NC(=O)C4CC4)cc3)n2)n[nH]1 [VX-680 (MK-0457, Tozasertib)] + Cc1nc(Nc2ncc(C(=O)Nc3c(C)cccc3Cl)s2)cc(N2CCN(CCO)CC2)n1 [dasatinib]	2.73	1.68	2.75	1.6	1.97	1.88	2.4	1.79	> 10	0.145	3.33	0.0951	0.511	0.152	1.11	0.325	0.536	0.139	0.0311	0.077	0.0667	0.308	0.183	0.269
COc1cc2c(Nc3ccc(Br)cc3F)ncnc2cc1OCC1CCN(C)CC1 [Vandetanib (Zactima)] + Cc1nc(Nc2ncc(C(=O)Nc3c(C)cccc3Cl)s2)cc(N2CCN(CCO)CC2)n1 [dasatinib]	2.46	1.82	2.64	2.07	2.48	2.55	3.11	2.01	1.49	0.305	1.88	2.21	> 10	5.42	7.71	1.13	0.161	0.0849	0.0159	0.0882	0.456	0.332	0.366	0.157

Reference: the supplement of paper PMC8149375
